PubChem BioAssay (NCI)
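Step 1: Grow cells in 96-well plates. Step 2: Expose to compound for 48 hours at 5 concentrations. Step 3: Interpolate endpoints linearly; if unreached, use highest concentration. TGI marks complete inhibition of growth.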

What was measured:
Experiment in all cases: NCI tumour cell line growth inhibition, 48 h
DLD-1 colon = system: DLD-1 colon
U251 CNS = system: U251 CNS
UACC-62 melanoma = system: UACC-62 melanoma
NCI-H23 lung = system: NCI-H23 lung
OVCAR-4 ovarian = system: OVCAR-4 ovarian
OVCAR-3 ovarian = system: OVCAR-3 ovarian
SN12C renal = system: SN12C renal
SF-268 CNS = system: SF-268 CNS
UACC-257 melanoma = system: UACC-257 melanoma
SK-MEL-2 melanoma = system: SK-MEL-2 melanoma
M19-MEL melanoma = system: M19-MEL melanoma
A498 renal = system: A498 renal
NCI-H522 lung = system: NCI-H522 lung
HCT-116 colon = system: HCT-116 colon
XF 498 CNS = system: XF 498 CNS
CCRF-CEM leukemia = system: CCRF-CEM leukemia
SNB-78 CNS = system: SNB-78 CNS
HL-60(TB) leukemia = system: HL-60(TB) leukemia
NCI-H460 lung = system: NCI-H460 lung
MALME-3M melanoma = system: MALME-3M melanoma
TK-10 renal = system: TK-10 renal
RXF 393 renal = system: RXF 393 renal
OVCAR-5 ovarian = system: OVCAR-5 ovarian
SNB-75 CNS = system: SNB-75 CNS
HOP-62 NSCLC = system: HOP-62 NSCLC
SK-OV-3 ovarian = system: SK-OV-3 ovarian
SF-539 CNS = system: SF-539 CNS
ACHN renal = system: ACHN renal
EKVX NSCLC = system: EKVX NSCLC
KM12 colon = system: KM12 colon
SR leukemia = system: SR leukemia
LOX IMVI melanoma = system: LOX IMVI melanoma
HT29 colon = system: HT29 colon
UO-31 renal = system: UO-31 renal
MOLT-4 leukemia = system: MOLT-4 leukemia
K-562 leukemia = system: K-562 leukemia
M14 melanoma = system: M14 melanoma
KM20L2 colon = system: KM20L2 colon
SNB-19 CNS = system: SNB-19 CNS
HCC-2998 colon = system: HCC-2998 colon
SK-MEL-28 melanoma = system: SK-MEL-28 melanoma
LXFL 529 NSCLC = system: LXFL 529 NSCLC

## O=S(O)CCCCCSSSCCCCCS(=O)O
DLD-1 colon
  TGI: > 100 µM
U251 CNS
  TGI: > 100 µM
UACC-62 melanoma
  TGI: 55.3 µM
NCI-H23 lung
  TGI: > 100 µM
OVCAR-4 ovarian
  TGI: > 100 µM
OVCAR-3 ovarian
  TGI: 78.9 µM
SN12C renal
  TGI: > 100 µM
SF-268 CNS
  TGI: > 100 µM
UACC-257 melanoma
  TGI: > 100 µM
SK-MEL-2 melanoma
  TGI: 67.8 µM
M19-MEL melanoma
  TGI: > 100 µM
A498 renal
  TGI: > 100 µM
NCI-H522 lung
  TGI: 85.1 µM
HCT-116 colon
  TGI: 68.1 µM
XF 498 CNS
  TGI: 36.3 µM
CCRF-CEM leukemia
  TGI: 37.7 µM
SNB-78 CNS
  TGI: > 100 µM
HL-60(TB) leukemia
  TGI: 65 µM
NCI-H460 lung
  TGI: > 100 µM
MALME-3M melanoma
  TGI: 94 µM
TK-10 renal
  TGI: 93.8 µM
RXF 393 renal
  TGI: 41.8 µM
OVCAR-5 ovarian
  TGI: > 100 µM
SNB-75 CNS
  TGI: 94.8 µM
HOP-62 NSCLC
  TGI: > 100 µM
SK-OV-3 ovarian
  TGI: > 100 µM
SF-539 CNS
  TGI: > 100 µM
ACHN renal
  TGI: > 100 µM
EKVX NSCLC
  TGI: > 100 µM
KM12 colon
  TGI: > 100 µM
SR leukemia
  TGI: 30.3 µM
LOX IMVI melanoma
  TGI: 62.4 µM
HT29 colon
  TGI: > 100 µM
UO-31 renal
  TGI: > 100 µM
MOLT-4 leukemia
  TGI: 60.8 µM
K-562 leukemia
  TGI: > 100 µM
M14 melanoma
  TGI: > 100 µM
KM20L2 colon
  TGI: > 100 µM
SNB-19 CNS
  TGI: > 100 µM
HCC-2998 colon
  TGI: > 100 µM
SK-MEL-28 melanoma
  TGI: > 100 µM
LXFL 529 NSCLC
  TGI: 27.9 µM
